What was measured:
Type in all cases: cell-based
[1] = tested on: BxPC3; test: Cytotoxicity, propidium iodide assay, BxPC3; settings: Homo sapiens, BXPC-3; Pancreatic, BxPC3, 48 hours treatment; read-out: IC50, C5c (BxPC3)
Experimental: (§1) The assay was designed as in the reference, Anticancer Drugs, 2002, 13, 1-8, the disclosure of which is incorporated by reference for the teaching of the assay.
(§2) Cells from cell lines as mentioned in the table given below were seeded at a density of 3000 cells/well in a white opaque 96-well plate. Following incubation at 37° C./5% CO2 for a period of 18-24 hours, the cells were treated with various concentrations (stock solution was prepared in DMSO and subsequent dilutions were made in media as per ATCC guidelines) of the compounds of Example 1-40 was for a period of 48 hours. At the end of treatment, the spent culture medium was discarded, the cells were washed with 1×PBS and 200 μl of 7 μg/ml propidium iodide was added to each well. The plates were frozen at −70° C. for at least 24 hours. For analysis, the plates were brought to RT, allowed to thaw and were read in PoleStar fluorimeter with the fluorescence setting. The percentage of viable cells in the non-treated set of wells was considered to be 100 and the percentage viability following treatment was calculated accordingly. IC50 values were calculated from graphs plotted using these percentages. Table 4 depicts the IC50 values of compounds of Example 1-40 in individual cell lines.
(§3) The abbreviations for the Cell Lines as used in Table 4 are: […]

[2] = tested on: U 87 MG; test: Cytotoxicity, propidium iodide assay, U 87 MG; settings: Homo sapiens, Glioblastoma, 48 hours treatment, read-out: IC50, C7b (U 87 MG)
Experimental: as §1, §2, §3

[3] = tested on: MCF7; test: Cytotoxicity, propidium iodide assay, MCF7; settings: Homo sapiens; Breast, MCF7, 48 hours treatment; read-out: IC50, C6c (MCF7)
Experimental: as §1, §2, §3

[4] = tested on: BT 549; test: Cytotoxicity, propidium iodide assay, BT 549; settings: Homo sapiens; Breast, BT 549, 48 hours treatment; read-out: IC50, C6d (BT 549)
Experimental: as §1, §2, §3

[5] = tested on: T47D; test: Cytotoxicity, propidium iodide assay, T47D; settings: Homo sapiens, Breast, 48 hours treatment, read-out: IC50, C6e (T47D)
Experimental: as §1, §2, §3

[6] = tested on: MDA MB 231; test: Cytotoxicity, propidium iodide assay, MDA MB 231; settings: Homo sapiens; Breast, MDA MB 231, 48 hours treatment; read-out: IC50, C6a (MDA MB 231)
Experimental: as §1, §2, §3

Cc1cccc(S(=O)(=O)n2c(=O)n(-c3ccc(C(C)(C)C#N)cc3)c3c4cc(Br)ccc4ncc32)c1 [Example 3, 2-(4-(8-Bromo-2-oxo-3-(m-tolylsulfonyl)-2,3-dihydro-1H-imidazo[4,5-c]quinolin-1-yl)phenyl)-2-methylpropanenitrile]
IC50 [1]: ≤ 1000 nM
IC50 [2]: 1000 to 3000 nM

C/C=C/C(=O)n1c(=O)n(-c2ccc(C(C)(C)C#N)cc2)c2c3cc(Br)ccc3ncc21 [Example 27, (E)-2-(4-(8-Bromo-3-but-2-enoyl-2-oxo-2,3-dihydro-1H-imidazo[4,5-c]quinolin-1-yl)phenyl)-2-methylpropanenitrile]
IC50 [3]: ≤ 1000 nM
IC50 [4]: ≤ 1000 nM
IC50 [5]: ≤ 1000 nM
IC50 [6]: ≤ 1000 nM

CC(C)(C#N)c1ccc(-n2c(=O)n(C(=O)c3ccccc3)c3cnc4ccc(Br)cc4c32)cc1 [Example 30, 2-(4-(3-Benzoyl-8-bromo-2-oxo-2,3-dihydro-1H-imidazo[4,5-c]quinolin-1-yl)phenyl)-2-methylpropanenitrile]
IC50 [1]: ≤ 1000 nM

CC(C)(C#N)c1ccc(-n2c(=O)n(C(=O)c3ccccc3)c3cnc4ccc(Cl)cc4c32)cc1 [Example 37, 2-(4-(3-Benzoyl-8-chloro-2-oxo-2,3-dihydro-1H-imidazo[4,5-c]quinolin-1-yl)phenyl)-2-methylpropanenitrile]
IC50 [2]: > 3000 nM

C/C=C/C(=O)n1c(=O)n(-c2ccc(C(C)(C)C#N)cc2)c2c3cc(Cl)ccc3ncc21 [Example 38, (E)-2-(4-(3-But-2-enoyl-8-chloro-2-oxo-2,3-dihydro-1H-imidazo[4,5-c]quinolin-1-yl)phenyl)-2-methylpropanenitrile]
IC50 [3]: ≤ 1000 nM
IC50 [4]: ≤ 1000 nM
IC50 [5]: ≤ 1000 nM
IC50 [6]: ≤ 1000 nM

From US8637670B2, “Imidazo [4,5-C]quinoline derivatives and their use in the treatment of tumors and/or inflammation” (Piramal Enterprises Limited, priority 2009, dated 2014)
